From ChEMBL document CHEMBL2062409, “Conformationally-restricted cyclic sulfones as potent and selective mTOR kinase inhibitors” (Bioorg Med Chem Lett, 2012) come the findings set out here.

Each structure is given as a SMILES string. A value given as a limit tells only on which side of the number the result lay.

For orientation: Ki means the dissociation constant of the complex between target and ligand, obtained from inhibition or displacement. A higher Ki goes with lower affinity. Usually IC50 stands for the midpoint of a concentration-inhibition curve. As a reminder, the inhibition is the change of the read-out against control, counted positive when it falls. One may read the clearance as a measure of how efficiently the substance is removed, as volume per time. Usually half-life stands for the time needed for the level to fall by half in the phase considered. Read a high half-life as slow decline. A word on the bioavailability: it is the share of a dose that reaches the circulation, judged against a reference dose that is usually intravenous. Low readings indicate little systemic uptake, high ones much systemic uptake.

Data set [1] deals with T1, Serine/threonine-protein kinase mTOR (Homo sapiens, UniProt P42345). The data set is described as follows: Inhibition of mTOR.
Data set [2] can be described thus: Clearance in human liver microsomes assessed per mg of protein. It counts as ADME, Microsome. Conditions: read-out: CLH.
The target of data set [3] is T2, Phosphatidylinositol 4,5-bisphosphate 3-kinase catalytic subunit alpha isoform (Homo sapiens, UniProt P42336). The data set is described as follows: Inhibition of PI3Kalpha.
T2 sequence (P42336 whole entry, canonical isoform): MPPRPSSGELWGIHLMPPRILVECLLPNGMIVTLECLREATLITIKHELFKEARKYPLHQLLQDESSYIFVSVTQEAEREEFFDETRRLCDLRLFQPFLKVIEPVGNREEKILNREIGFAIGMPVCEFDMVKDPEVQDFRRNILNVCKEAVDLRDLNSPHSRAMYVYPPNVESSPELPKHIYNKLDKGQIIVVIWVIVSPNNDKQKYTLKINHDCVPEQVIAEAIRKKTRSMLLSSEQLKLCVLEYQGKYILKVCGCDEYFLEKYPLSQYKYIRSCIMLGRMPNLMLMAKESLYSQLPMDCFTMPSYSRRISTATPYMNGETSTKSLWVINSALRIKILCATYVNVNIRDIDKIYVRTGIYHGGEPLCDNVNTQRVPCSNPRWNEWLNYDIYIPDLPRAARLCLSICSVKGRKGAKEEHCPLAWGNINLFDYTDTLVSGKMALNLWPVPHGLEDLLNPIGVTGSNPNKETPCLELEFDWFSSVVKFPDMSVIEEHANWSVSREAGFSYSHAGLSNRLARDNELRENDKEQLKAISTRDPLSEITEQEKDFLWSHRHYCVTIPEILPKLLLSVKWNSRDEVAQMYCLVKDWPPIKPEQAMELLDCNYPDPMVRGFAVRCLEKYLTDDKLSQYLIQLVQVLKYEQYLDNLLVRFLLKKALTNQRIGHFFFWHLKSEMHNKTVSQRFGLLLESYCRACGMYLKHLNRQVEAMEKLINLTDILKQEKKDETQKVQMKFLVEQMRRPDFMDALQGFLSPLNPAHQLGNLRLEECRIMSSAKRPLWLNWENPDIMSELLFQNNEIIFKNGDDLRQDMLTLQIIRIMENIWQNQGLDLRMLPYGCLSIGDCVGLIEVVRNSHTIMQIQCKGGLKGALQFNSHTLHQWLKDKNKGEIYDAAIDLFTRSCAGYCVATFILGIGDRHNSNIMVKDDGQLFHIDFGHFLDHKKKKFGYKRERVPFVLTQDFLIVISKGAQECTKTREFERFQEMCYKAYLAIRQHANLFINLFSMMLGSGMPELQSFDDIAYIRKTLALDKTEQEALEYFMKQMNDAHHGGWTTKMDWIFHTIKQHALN
Data set [4] can be described thus: Clearance in human hepatocytes assessed per million cells. Type of data set: ADME, cell-based, Hepatocyte. As to conditions: read-out: CLH.
In data set [5] the target is T1, Serine/threonine-protein kinase mTOR. The data set is described as follows: Inhibition of mTOR-mediated AKT phosphorylation at Ser473 by cell based assay.
Data set [6] concerns the target T2, Phosphatidylinositol 4,5-bisphosphate 3-kinase catalytic subunit alpha isoform. Nature of the data set: Inhibition of PI3Kalpha at 100 nM.
The species entered for a further data set is Homo sapiens. The data set is described as follows: Selectivity ratio of Ki for PI3Kalpha to Ki for mTOR.
The next data set concerns the target CYP2D6 (Homo sapiens, UniProt P10635). The data set is described as follows: Inhibition of CYP2D6 at 3 uM. It counts as ADME.
For another data set, the target named is CYP2C9 (Homo sapiens, UniProt P11712). Nature of the data set: Inhibition of CYP2C9 at 3 uM. It counts as ADME.
Sequence of CYP2C9 (P11712 whole entry): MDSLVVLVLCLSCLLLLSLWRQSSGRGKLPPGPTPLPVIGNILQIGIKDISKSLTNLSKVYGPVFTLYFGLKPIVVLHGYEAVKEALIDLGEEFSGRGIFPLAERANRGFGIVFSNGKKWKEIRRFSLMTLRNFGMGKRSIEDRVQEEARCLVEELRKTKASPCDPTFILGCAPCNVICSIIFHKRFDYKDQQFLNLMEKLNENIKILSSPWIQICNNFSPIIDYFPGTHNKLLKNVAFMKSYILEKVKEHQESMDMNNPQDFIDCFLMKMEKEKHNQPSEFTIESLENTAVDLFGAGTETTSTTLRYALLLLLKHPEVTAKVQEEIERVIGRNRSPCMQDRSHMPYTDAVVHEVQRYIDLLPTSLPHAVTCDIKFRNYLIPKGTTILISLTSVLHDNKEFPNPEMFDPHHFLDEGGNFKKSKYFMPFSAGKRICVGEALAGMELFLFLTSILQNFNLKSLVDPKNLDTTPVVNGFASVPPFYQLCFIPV
A short description of data set [7]: Clearance in rat. Conditions: in vivo. It counts as ADME, organism-based.
Data set [8] has as its target T1, Serine/threonine-protein kinase mTOR. The data set is described as follows: Inhibition of mTOR-mediated ribosomal protein S6 kinase phosphorylation by cell based assay.
For a further data set, the target named is T3, CYP1A2 (Homo sapiens, UniProt P05177).
T3 sequence (P05177 whole entry): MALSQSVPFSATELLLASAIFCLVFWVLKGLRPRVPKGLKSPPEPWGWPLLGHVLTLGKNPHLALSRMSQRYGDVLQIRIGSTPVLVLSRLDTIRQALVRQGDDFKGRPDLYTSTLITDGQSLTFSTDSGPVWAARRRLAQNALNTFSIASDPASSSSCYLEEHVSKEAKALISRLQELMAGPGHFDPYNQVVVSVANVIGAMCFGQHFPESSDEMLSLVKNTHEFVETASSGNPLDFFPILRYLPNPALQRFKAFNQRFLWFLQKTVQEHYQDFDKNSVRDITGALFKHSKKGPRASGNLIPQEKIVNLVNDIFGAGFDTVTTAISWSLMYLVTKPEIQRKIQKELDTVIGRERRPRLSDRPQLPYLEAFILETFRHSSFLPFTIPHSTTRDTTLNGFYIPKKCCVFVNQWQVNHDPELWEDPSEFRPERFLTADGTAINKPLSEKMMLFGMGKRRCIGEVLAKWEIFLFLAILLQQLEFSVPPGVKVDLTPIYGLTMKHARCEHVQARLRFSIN
Nature of the data set: Inhibition of CYP1A2 at 3 uM. Type of data set: ADME.

Another data set addresses CYP3A4 (Homo sapiens, UniProt P08684). Nature of the data set: Inhibition of CYP3A4 at 3 uM. It counts as ADME.
Data set [9] is described as follows: Half life in rat. Type of data set: ADME, organism-based. Conditions: in vivo.
Another data set concerns Salmonella typhimurium. Nature of the data set: Genotoxicity in Salmonella typhimurium. It counts as toxicity, organism-based. Conditions: salmonella enterica subsp. enterica serovar typhimurium.
Data set [10] can be described thus: Drug excretion in rat. Type of data set: ADME, organism-based. As to conditions: in vivo, read-out: Drug excretion.
A short description of data set [11]: Oral bioavailability in rat. Type of data set: ADME, organism-based. As to conditions: in vivo.

Sequence of CYP2D6 (P10635 whole entry): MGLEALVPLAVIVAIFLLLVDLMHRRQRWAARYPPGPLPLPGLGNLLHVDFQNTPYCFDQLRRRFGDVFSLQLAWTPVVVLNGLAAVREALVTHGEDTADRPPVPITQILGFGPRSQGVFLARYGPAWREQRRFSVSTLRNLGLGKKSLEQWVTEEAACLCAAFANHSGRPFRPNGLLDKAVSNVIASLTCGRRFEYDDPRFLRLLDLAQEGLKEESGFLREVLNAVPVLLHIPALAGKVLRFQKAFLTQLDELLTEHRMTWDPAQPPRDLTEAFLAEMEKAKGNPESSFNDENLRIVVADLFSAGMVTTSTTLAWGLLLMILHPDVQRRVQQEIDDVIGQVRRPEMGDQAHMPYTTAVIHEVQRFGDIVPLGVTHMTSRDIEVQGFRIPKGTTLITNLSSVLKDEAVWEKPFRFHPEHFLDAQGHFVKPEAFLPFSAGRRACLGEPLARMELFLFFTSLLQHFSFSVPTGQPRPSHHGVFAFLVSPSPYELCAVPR
Sequence of CYP3A4 (P08684 whole entry): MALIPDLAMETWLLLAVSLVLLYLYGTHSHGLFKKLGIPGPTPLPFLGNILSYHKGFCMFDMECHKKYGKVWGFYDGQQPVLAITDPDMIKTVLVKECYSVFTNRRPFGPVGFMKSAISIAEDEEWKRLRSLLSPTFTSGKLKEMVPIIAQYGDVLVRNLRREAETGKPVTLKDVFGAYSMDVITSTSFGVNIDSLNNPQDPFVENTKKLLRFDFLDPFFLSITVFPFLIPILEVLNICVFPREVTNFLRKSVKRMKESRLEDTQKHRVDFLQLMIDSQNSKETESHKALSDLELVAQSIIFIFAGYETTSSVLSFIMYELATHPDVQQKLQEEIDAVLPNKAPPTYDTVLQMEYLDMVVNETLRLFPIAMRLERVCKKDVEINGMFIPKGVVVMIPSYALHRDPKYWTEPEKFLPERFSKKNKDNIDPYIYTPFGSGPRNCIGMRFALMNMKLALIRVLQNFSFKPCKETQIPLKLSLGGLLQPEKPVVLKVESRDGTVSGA

In the case of `CCNC(=O)Nc1ccc(-c2nc3c(c(N4CCOC[C@@H]4C)n2)S(=O)(=O)CCC3)cc1`, the Ki is 50 nM in [1] and > 4550 nM in data set [3]. The microsomal CLint in data set [2] is 58 µL/min/mg. Besides, in data set [4], the hepatocyte CLint was 28 µL/min/1e6 cells.
For `CCNC(=O)Nc1ccc(-c2nc3c(c(N4C[C@H]5CC[C@@H](C4)O5)n2)CS(=O)(=O)CC3)cc1`, the Ki in data set [1] is 5 nM; in data set [3] it was 3000 nM. Moreover, the IC50 in data set [5] stood at 55 nM.
Turning to `CCNC(=O)Nc1ccc(-c2nc3c(c(N4CCOC[C@H]4C)n2)S(=O)(=O)CC3)cc1`, in data set [1], the Ki worked out at 120 nM. Also, the microsomal CLint in data set [2] is 25 µL/min/mg. In addition, the inhibition in [6] was 7%. Moreover, the hepatocyte CLint in data set [4] was 11 µL/min/1e6 cells.
For the compound `CCNC(=O)Nc1ccc(-c2nc3c(c(N4CCOCC4)n2)CS(=O)(=O)CC3)cc1`, the Ki in [1] was 50 nM; in data set [3], > 4550 nM. Besides, the microsomal CLint in data set [2] was < 8 µL/min/mg. The hepatocyte CLint in [4] is < 2 µL/min/1e6 cells.
Consider `CCNC(=O)Nc1ccc(-c2nc3c(c(N4CCOC[C@H]4C)n2)CS(=O)(=O)CC3)cc1`, for which the Ki in data set [1] is 52 nM; in data set [3], > 4550 nM.
In the case of `CCNC(=O)Nc1ccc(-c2nc3c(c(N4CCOCC4)n2)CS(=O)(=O)C3)cc1`, the results for the Ki in [1] and in data set [3] were 25 nM and 514 nM, respectively. In addition, the microsomal CLint in data set [2] is < 8 µL/min/mg. Besides, the hepatocyte CLint in [4] was < 2 µL/min/1e6 cells. Also, the Ratio Ki in the data set listed under Homo sapiens was determined as 20.
In data set [1], `CCNC(=O)Nc1ccc(-c2nc3c(c(N4C[C@@H]5C[C@H]4CO5)n2)CS(=O)(=O)C3)cc1` came in with a Ki of 62 nM. In data set [5], this compound showed an IC50 of 1290 nM. For the same compound, the inhibition in data set [6] is 3%.
Taken in the same sequence, the figures for `CCNC(=O)Nc1ccc(-c2nc3c(c(N4C[C@H]5CC[C@@H](C4)O5)n2)CS(=O)(=O)C3)cc1` were 7 nM, 84 nM and 18%.
Consider `CCNC(=O)Nc1ccc(-c2nc3c(c(N4CCOC[C@@H]4C)n2)CS(=O)(=O)CC3)cc1`, for which the inhibition at 3 µM against CYP2D6, against CYP2C9, on CYP1A2 and on CYP3A4 was ≤ 25% in each case. The compound further showed a clearance in data set [7] of 66.2 mL/min/kg. The results for the inhibition constant Ki in data set [1] and in data set [3] were 8 nM and > 4550 nM, respectively. Further, the IC50 in [5] came to 48 nM; in data set [8], 6 nM. In addition, the microsomal CLint in [2] is 8.7 µL/min/mg. For the same compound, the hepatocyte CLint in data set [4] is < 2 µL/min/1e6 cells. The half-life in data set [9] is 1.05 h. In the data set on Salmonella typhimurium, the Activity result is “Non-toxic”. For the same compound, in the data set filed under Homo sapiens, the Ratio Ki was > 500. The dose excreted in [10] came out at 5.5%. In data set [11], this compound displayed a bioavailability of 30%.
